# Results taken from patent US20230066315A1, “COMPOUNDS AND USES THEREOF” (Nuvation Bio Inc., priority 2019, published 2023).
# How the values were obtained:
# [1] = target: T1, adenosine A2a (human) membrane (Homo sapiens, UniProt P29274); experiment: A2A adenosine receptor radioligand binding assay ([3H] CGS-21680); conditions: radioligand [3H] CGS-21680 6 nM, RT 2 hours
# T1 construct: purchased PerkinElmer RBHA2AM400UA
# Procedure: A second A2A adenosine receptor radioligand binding assay protocol was used. The protocol used adenosine A2a (human) membrane (PerkinElmer RBHA2AM400UA) at a concentration of […]/well/100 μl and the radioligand [3H] CGS-21680 (Cat No. PerkinElmer-NET1021250UC) at a final concentration of 6 nM. Testing compounds were diluted with DMSO to make 8-point 4-fold serial dilution, starting at 0.2 mM. CGS-15943 was the reference compound. 1 μl of compounds/high control/low control was transferred to the assay plate according to a plate map, followed by 100 μl of membrane stocks and 100 μl of radioligand, in assay buffer (50 mM Tris-HCl, 10 mM MgCl2, 1 mM EDTA, pH 7.4). The plate was sealed and incubated at RT for 2 hours. Unifilter-96 GF/C filter plates (Perkin Elmer Cat #6005174) were soaked with 50 μl of 0.3% PEI per well for at least 0.5 hour at room temperature. When the binding assays were completed, the reaction mixtures were filtered through GF/C plates using Perkin Elmer Filtermate Harvester, and each plate washed 4 times with cold wash buffer (50 mM Tris-HCl, 154 mM NaCl, pH 7.4). The filter plates were dried for 1 hour at 50 degrees. After drying, the bottom of the filter plate wells was sealed, 50 μl of Perkin Elmer Microscint 20 cocktail was added, and the top of the filter plate was sealed. ^3H trapped on the filter was counted using Perkin Elmer MicroBeta2 Reader. The data were analyzed with GraphPad Prism 5 to obtain binding IC50 values. The “Inhibition [% Control]” was calculated using the equation: % Inh=(1−Background subtracted Assay value/Background subtracted HC value)*100, where HC is high control.
# [2] = target: T2, human recombinant adenosine A2A receptor (Homo sapiens, UniProt P29274); experiment: cAMP assay (Assay 2) in HEK-293 cells expressing A2A receptor; type: cell-based; conditions: HEK-293 cells expressing human recombinant adenosine A2A receptor; reducing A2A cAMP levels
# T2 construct: expressed in transfected cells; host or cells: HEK-293
# T2 sequence (P29274 whole entry): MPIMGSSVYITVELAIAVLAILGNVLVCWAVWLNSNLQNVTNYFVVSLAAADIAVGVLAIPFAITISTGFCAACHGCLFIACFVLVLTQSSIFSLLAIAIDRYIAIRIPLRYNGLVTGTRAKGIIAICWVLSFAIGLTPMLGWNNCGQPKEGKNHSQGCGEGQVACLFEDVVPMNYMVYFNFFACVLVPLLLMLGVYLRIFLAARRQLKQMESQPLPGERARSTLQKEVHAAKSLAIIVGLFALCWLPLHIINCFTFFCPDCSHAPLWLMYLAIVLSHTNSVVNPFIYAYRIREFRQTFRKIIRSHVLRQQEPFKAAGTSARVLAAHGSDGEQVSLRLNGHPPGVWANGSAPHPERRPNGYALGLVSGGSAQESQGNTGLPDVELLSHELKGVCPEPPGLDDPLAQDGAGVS
# Procedure: The functional activity of compound 1.5 was tested using Assay 2 below, to detect the presence of cAMP. Assay 1 is an alternative assay for this purpose. Activation of G-protein coupled receptors (such as A2A) results in activation of adenylyl cyclase which converts ATP into cAMP which is used as a downstream signaling molecule. Molecules which act as GPCR (or specifically A2A receptor) antagonists cause a decrease in intracellular cAMP concentration.
# Assay 2 (Table B2): This assay used HEK-293 cells expressing human recombinant adenosine A2A receptor that were grown prior to the test in media without antibiotic. 100 nL of test articles at 100× of final concentration were transferred to assay plate by Echo. Cells were washed twice with 5 mL of PBS and 10 pL of cells were mixed with 5 mL PBS. After aspirating the PBS and adding 1.5 mL versine, cells were incubated at 37° C. for 2-5 min. After centrifugation, 4 mL of medium was added and adjusted cell density to 5,000 cells/well with Stimulation Buffer. 10 pL of cells were aliquoted to the assay plate, centrifuged at 1000 rpm for 1 minute, and incubated for 60 minutes at room temperature. 5 pL 4× Eu-cAMP tracer solution and 5 pL 4× Ulight™-anti-cAMP solution were added to assay plate, followed by centrifugation and 60-minute incubation at room temperature. Plates were read on EnVision. […]
# T1 sequence (P29274 whole entry): as above
Structure (SMILES),IC50 [1],IC50 [2]
"Cn1ccc(=O)c2nc(-c3ccc4ncccc4c3)c(-c3ccccc3)nc21 [Compound 1.8, 5-methyl-3-phenyl-2-(quinolin-6-yl)pyrido[2,3-b]pyrazin-8(5H)-one]",958 nM,–
"O=c1ccc2nc(-c3ccc4ncccc4c3)c(-c3ccccc3)nc2[nH]1 [Compound 1.4, 3-phenyl-2-(quinolin-6-yl)pyrido[2,3-b]pyrazin-6(5H)-one]",5.5 nM,–
"O=c1ccc2nc(-c3cc(Cl)c4ncccc4c3)c(-c3ccccc3)nc2[nH]1 [Compound 1.12, 2-(8-chloroquinolin-6-yl)-3-phenylpyrido[2,3-b]pyrazin-6(5H)-one]",6.6 nM,–
"O=c1cc[nH]c2nc(-c3ccccc3)c(-c3ccc4ncccc4c3)nc12 [Compound 1.5, 3-phenyl-2-(quinolin-6-yl)pyrido[2,3-b]pyrazin-8(5H)-one]",18 nM,325 nM
